US10981873B2 (priority 2016, dated 2021)

How the values were obtained:
N2a cells = settings: cited from earlier work
[1] = tested on: Botulinum toxin type A (BoNT/A); set-up: species or system Balb/c mice; settings: mouse, in vivo
[2] = biological target: Botulinum toxin type B endopeptidase (BoNT/B-LC) (Clostridium botulinum, UniProt P10844); type: biochemical
[3] = tested on: Botulinum toxin type B (BoNT/B); set-up: species or system Balb/c mice; settings: mouse, in vivo
[4] = biological target: Botulinum toxin type A endopeptidase (BoNT/A-LC) (Clostridium botulinum, UniProt P0DPI0); type: biochemical
Botulinum toxin type A endopeptidase (BoNT/A-LC), sequence (P0DPI0 2-448 limits assumed): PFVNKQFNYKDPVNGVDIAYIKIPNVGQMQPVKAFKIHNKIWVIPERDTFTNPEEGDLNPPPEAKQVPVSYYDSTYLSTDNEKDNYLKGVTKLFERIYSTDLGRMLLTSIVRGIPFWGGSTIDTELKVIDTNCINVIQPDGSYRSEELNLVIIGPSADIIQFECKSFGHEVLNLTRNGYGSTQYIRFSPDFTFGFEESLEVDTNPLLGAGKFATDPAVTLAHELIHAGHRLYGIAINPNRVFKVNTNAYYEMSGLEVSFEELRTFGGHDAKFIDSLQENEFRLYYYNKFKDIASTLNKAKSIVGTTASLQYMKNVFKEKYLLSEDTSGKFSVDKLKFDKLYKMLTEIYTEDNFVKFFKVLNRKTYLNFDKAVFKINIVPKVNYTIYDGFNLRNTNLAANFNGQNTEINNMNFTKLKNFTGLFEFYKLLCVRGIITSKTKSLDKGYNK

Botulinum toxin type B endopeptidase (BoNT/B-LC), sequence (P10844 2-441 limits assumed): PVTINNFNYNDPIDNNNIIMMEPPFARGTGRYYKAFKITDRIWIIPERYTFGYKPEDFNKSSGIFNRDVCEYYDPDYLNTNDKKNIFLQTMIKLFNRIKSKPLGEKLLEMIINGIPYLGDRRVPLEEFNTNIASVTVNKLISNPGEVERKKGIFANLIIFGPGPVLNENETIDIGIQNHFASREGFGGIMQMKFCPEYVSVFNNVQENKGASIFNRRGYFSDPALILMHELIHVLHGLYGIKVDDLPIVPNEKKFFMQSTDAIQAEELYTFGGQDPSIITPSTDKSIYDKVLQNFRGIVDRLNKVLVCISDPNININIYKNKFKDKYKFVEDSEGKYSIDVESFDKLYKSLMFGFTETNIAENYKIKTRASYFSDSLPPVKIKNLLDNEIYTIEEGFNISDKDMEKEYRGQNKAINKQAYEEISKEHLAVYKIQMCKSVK

| SMILES | neutralization of toxicity of botulinum toxin type A to N2a cells (N2a cells) | Survival rate % [1] [%] | Inhibition rate % [2] [%] | Survival rate % [3] [%] | Inhibition rate % [4] [%] |
| --- | --- | --- | --- | --- | --- |
| CCOc1ccc(C(Nc2cccnc2)c2cc(Cl)c3cccnc3c2O)cc1 (centres unmarked) [CB7969312] | effectively neutralizes the toxicity | – | – | – | – |
| COc1ccc(Cl)cc1NC(=O)CS(=O)(=O)c1cc(C(=O)O)ccn1 [Compound 2a, 2-((2-((5-chloro-2-methoxyphenyl)amino)-2-oxoethyl)sulfonyl)isonicotinic acid] | – | 0 | 0 | 0 | 10 |
| O=C(CS(=O)(=O)c1ncccc1C(=O)O)Nc1cc(Cl)ccc1Oc1ccccc1 [Compound 2b, 2-((2-((5-chloro-2-phenoxyphenyl)amino)-2-oxoethyl)sulfonyl)nicotinic acid] | – | 0 | 0 | 0 | 5 |
| COc1ccc(Cl)cc1NC(=O)C[S+]([O-])c1ncccc1C(=O)O (centres unmarked) [Compound 2c, 2-((2-((5-chloro-2-methoxyphenyl)amino)-2-oxoethyl)sulfinyl)nicotinic acid] | – | 100 | 35 | 20 | 60.0 |
| COc1ccc(Cl)cc1NC(=O)COc1ncccc1C(=O)O [Compound 6a, 2-(2-((5-chloro-2-methoxyphenyl)amino)-2-oxoethoxy)nicotinic acid] | – | 60 | 80 | 20 | 0 |
